Active and inactive are the calls of the source. The rule behind the calls is not given here.
Legend:
BMDM [1] = test: Anti-osteoclastogenic activity in C57/BL6 mouse BMDM cells assessed as inhibition of RANKL-induced osteoclast differentiation at 10 uM incubated for 4 days in presence of M-CSF by TRAP staining based microscopic analysis relative to control; assay type: functional; settings: 96 h, time 4 day
BMDM [2] = test: Anti-osteoclastogenic activity in C57/BL6 mouse BMDM cells assessed as inhibition of RANKL-induced osteoclast differentiation at 5 uM incubated for 4 days in presence of M-CSF by TRAP staining based microscopic analysis relative to control; assay type: functional; settings: 96 h, time 4 day
Mus musculus [3] = test: Anti-osteoporosis activity in OVX-induced osteoporosis C57BL/6 mouse model assessed as increase in bone volume in femur at 30 mg/kg,po administrated twice daily for 4 weeks by micro-CT scanning analysis; assay type: functional, organism-based
Mus musculus [4] = test: Anti-osteoporosis activity in OVX-induced osteoporosis C57BL/6 mouse model assessed as increase in bone volume in femur at 15 mg/kg,po administrated twice daily for 4 weeks by micro-CT scanning analysis; assay type: functional, organism-based
BMDM [5] = test: Anti-osteoclastogenic activity in C57/BL6 mouse BMDM cells assessed as inhibition of RANKL-induced bone resorption pit incubated for 6 days by fluorescein amine-labeled calcium phosphate based fluorescence spectramax analysis; assay type: functional, cell-based; settings: time 6.0 day
BMDM [6] = test: Anti-osteoclastogenic activity in M-CSF/RANKL-induced C57/BL6 mouse BMDM cells assessed as downregulation of FGFR1 expression at 10 uM incubated upto 3 days by immunoblotting analysis; assay type: functional, cell-based; settings: time <= 3.0 day
BMDM [7] = test: Anti-osteoclastogenic activity in M-CSF/RANKL-induced C57/BL6 mouse BMDM cells assessed as downregulation of ATP6V0D2 mRNA expression at 10 uM incubated upto 3 days by qRT-PCR analysis; assay type: functional, cell-based; settings: time <= 3.0 day
BMDM [8] = test: Cytotoxicity against C57/BL6 mouse BMDM cells at < 20 uM incubated for 48 hrs by EZ-Cytox cell viability assay; assay type: toxicity, cell-based
BMDM [9] = test: Anti-osteoclastogenic activity in M-CSF/RANKL-induced C57/BL6 mouse BMDM cells assessed as downregulation of CTSK protein expression at 10 uM incubated upto 3 days by Western blotting analysis; assay type: functional, cell-based; settings: time <= 3.0 day
BMDM [10] = test: Anti-osteoclastogenic activity in M-CSF/RANKL-induced C57/BL6 mouse BMDM cells assessed as downregulation of NF-kappaB expression at 10 uM incubated upto 3 days by immunoblotting analysis; assay type: functional, cell-based; settings: time <= 3.0 day
Mus musculus [11] = test: Anti-osteoporosis activity in OVX-induced osteoporosis C57BL/6 mouse model assessed as prevention of bone loss in femur at 15 mg/kg,po administrated twice daily for 4 weeks by micro-CT scanning analysis; assay type: functional, organism-based
[12] = Cytotoxicity against BMP2-induced mouse Pre-Osteoblast cells at < 20 uM incubated for 48 hrs by EZ-Cytox cell viability assay; assay type: toxicity, cell-based
BMDM [13] = test: Anti-osteoclastogenic activity in M-CSF/RANKL-induced C57/BL6 mouse BMDM cells assessed as downregulation of ERK2 expression at 10 uM incubated upto 3 days by immunoblotting analysis; assay type: functional, cell-based; settings: time <= 3.0 day
Pre-Osteoblast [14] = test: Induction of osteogenesis in mouse Pre-Osteoblast cells assessed as effect on OSX mRNA expression by qRT-PCR analysis; assay type: functional, cell-based
BMDM [15] = test: Anti-osteoclastogenic activity in M-CSF/RANKL-induced C57/BL6 mouse BMDM cells assessed as downregulation of c-FOS mRNA expression at 10 uM incubated upto 3 days by qRT-PCR analysis; assay type: functional, cell-based; settings: time <= 3.0 day
BMDM [16] = test: Anti-osteoclastogenic activity in M-CSF/RANKL-induced C57/BL6 mouse BMDM cells assessed as downregulation of IkappaBalpha expression at 10 uM incubated upto 3 days by immunoblotting analysis; assay type: functional, cell-based; settings: time <= 3.0 day
BMDM [17] = test: Anti-osteoclastogenic activity in M-CSF/RANKL-induced C57/BL6 mouse BMDM cells assessed as downregulation of MMP9 mRNA expression at 10 uM incubated upto 3 days by qRT-PCR analysis; assay type: functional, cell-based; settings: time <= 3.0 day
Mus musculus [18] = test: Anti-osteoporosis activity in OVX-induced osteoporosis C57BL/6 mouse model assessed as increase in bone mineral density in femur at 30 mg/kg,po administrated twice daily for 4 weeks by micro-CT scanning analysis; assay type: functional, organism-based
BMDM [19] = test: Anti-osteoclastogenic activity in C57/BL6 mouse BMDM cells assessed as inhibition of RANKL-induced F-actin belt formation incubated for 6 days by F-actin ring assay; assay type: functional, cell-based; settings: time 6.0 day
BMDM [20] = test: Anti-osteoclastogenic activity in M-CSF/RANKL-induced C57/BL6 mouse BMDM cells assessed as downregulation of ERK1 expression at 10 uM incubated upto 3 days by immunoblotting analysis; assay type: functional, cell-based; settings: time <= 3.0 day
BMDM [21] = test: Anti-osteoclastogenic activity in M-CSF/RANKL-induced C57/BL6 mouse BMDM cells assessed as downregulation of CTSK mRNA expression at 10 uM incubated upto 3 days by qRT-PCR analysis; assay type: functional, cell-based; settings: time <= 3.0 day
BMDM [22] = test: Anti-osteoclastogenic activity in C57/BL6 mouse BMDM cells assessed as inhibition of RANKL-induced osteoclast differentiation by measuring number of TRAP-positive cells incubated for 4 days in presence of M-CSF by TRAP staining based microscopic analysis; assay type: functional, cell-based; settings: 96 h
Pre-Osteoblast [23] = test: Induction of osteogenesis in mouse Pre-Osteoblast cells assessed as effect on ALP mRNA expression by qRT-PCR analysis; assay type: functional, cell-based
Mus musculus [24] = test: Anti-osteoporosis activity in OVX-induced osteoporosis C57BL/6 mouse model assessed as prevention of bone loss in femur at 30 mg/kg,po administrated twice daily for 4 weeks by micro-CT scanning analysis; assay type: functional, organism-based
Pre-Osteoblast [25] = test: Induction of osteogenesis in mouse Pre-Osteoblast cells assessed as effect on RUNX2 mRNA expression by qRT-PCR analysis; assay type: functional, cell-based
Mus musculus [26] = test: Anti-osteoporosis activity in OVX-induced osteoporosis C57BL/6 mouse model assessed as increase in bone mineral density in femur at 15 mg/kg,po administrated twice daily for 4 weeks by micro-CT scanning analysis; assay type: functional, organism-based
BMDM [27] = test: Anti-osteoclastogenic activity in M-CSF/RANKL-induced C57/BL6 mouse BMDM cells assessed as downregulation of ACP5 mRNA expression at 10 uM incubated upto 3 days by qRT-PCR analysis; assay type: functional, cell-based; settings: time <= 3.0 day
Pre-Osteoblast [28] = test: Induction of osteogenesis in mouse Pre-Osteoblast cells assessed as increase in ALP expression at < 20 uM incubated for 9 days by BCIP/NBT staining based analysis; assay type: functional, cell-based; settings: time 9.0 day
[29] = Toxicity in OVX-induced osteoporosis C57BL/6 mouse model assessed as change in body weight at 30 mg/kg,po administrated twice daily for 4 weeks; assay type: organism-based; settings: in vivo, 672 h
BMDM [30] = test: Anti-osteoclastogenic activity in C57/BL6 mouse BMDM cells assessed as inhibition of RANKL-induced bone resorption number incubated for 6 days by fluorescein amine-labeled calcium phosphate based fluorescence spectramax analysis; assay type: functional, cell-based; settings: time 6.0 day
BMDM [31] = test: Anti-osteoclastogenic activity in M-CSF/RANKL-induced C57/BL6 mouse BMDM cells assessed as downregulation of NFATc1 mRNA expression at 10 uM incubated upto 3 days by qRT-PCR analysis; assay type: functional, cell-based; settings: time <= 3.0 day
BMDM [32] = test: Anti-osteoclastogenic activity in M-CSF/RANKL-induced C57/BL6 mouse BMDM cells assessed as downregulation of Dc-stamp mRNA expression at 10 uM incubated upto 3 days by qRT-PCR analysis; assay type: functional, cell-based; settings: time <= 3.0 day
BMDM [33] = test: Anti-osteoclastogenic activity in C57/BL6 mouse BMDM cells assessed as inhibition of RANKL-induced osteoclast formation at 10 uM incubated for 4 days in presence of M-CSF by TRAP staining based microscopic analysis; assay type: functional, cell-based; settings: time 4.0 day

## O=c1c(Cc2ccccc2O)coc2ccccc12
BMDM [1]
  inhibition at 10 µM: 46.7%
BMDM [2]
  inhibition at 5 µM: 12.8%

## CCOc1cccc(Cc2c(-c3ccccc3)oc3ccccc3c2=O)c1O
BMDM [1]
  inhibition at 10 µM: 25%
BMDM [2]
  inhibition at 5 µM: 1.08%

## O=c1c(Cc2cc(Cl)cc(Cl)c2O)c(-c2ccccc2)oc2ccccc12
BMDM [1]
  inhibition at 10 µM: 14.7%
BMDM [2]
  inhibition at 5 µM: 2.94%

## Cc1ccc(O)c(Cc2c(-c3ccccc3)oc3ccccc3c2=O)c1
BMDM [1]
  inhibition at 10 µM: 32.5%
BMDM [2]
  inhibition at 5 µM: 21.5%

## COc1cc(Oc2ccccc2Cc2c(-c3ccccc3)oc3ccccc3c2=O)cc(OC)c1OC
BMDM [1]
  inhibition at 10 µM: 40.3%
BMDM [2]
  inhibition at 5 µM: 22.7%

## Cc1ccc(-c2oc3ccc(C)cc3c(=O)c2Cc2cc(C)ccc2O)cc1
BMDM [1]
  inhibition at 10 µM: 23.8%
BMDM [2]
  inhibition at 5 µM: 22.3%

## CCCCOc1ccccc1Cc1c(-c2ccccc2)oc2ccccc2c1=O
BMDM [1]
  inhibition at 10 µM: 44.7%
BMDM [2]
  inhibition at 5 µM: 19%

## O=c1c(Cc2ccccc2O)c(-c2ccc(-c3ccccc3)cc2)oc2ccccc12
BMDM [1]
  inhibition at 10 µM: 69.3%
BMDM [2]
  inhibition at 5 µM: 37.9%

## O=c1cc(-c2ccccc2)oc2ccccc12 [FLAVONE]
BMDM [1]
  inhibition at 10 µM: 35.4%
BMDM [2]
  inhibition at 5 µM: 7.11%

## O=c1c(Cc2cc(Br)ccc2O)c(-c2ccccc2)oc2ccc(Br)cc12
BMDM [1]
  inhibition at 10 µM: -4.4%
BMDM [2]
  inhibition at 5 µM: -8.26%

## O=c1c(Cc2ccccc2O)c(-c2ccc(Cl)cc2)oc2ccccc12
BMDM [1]
  inhibition at 10 µM: 36.7%
BMDM [2]
  inhibition at 5 µM: 33%

## CC(C)(C)c1ccc(Oc2ccccc2Cc2c(-c3ccccc3)oc3ccccc3c2=O)cc1
BMDM [1]
  inhibition at 10 µM: 12%
BMDM [2]
  inhibition at 5 µM: 11.1%

## O=c1c(Cc2ccccc2Oc2ccc(O)cc2)c(-c2ccccc2)oc2ccccc12
BMDM [1]
  inhibition at 10 µM: 55.3%
BMDM [2]
  inhibition at 5 µM: 29.4%

## O=c1c(Cc2cc(-c3ccccc3)ccc2O)c(-c2ccccc2)oc2ccccc12
BMDM [1]
  inhibition at 10 µM: 23.7%
BMDM [2]
  inhibition at 5 µM: 25.6%

## COc1ccc(O)c(Cc2c(-c3ccccc3)oc3ccc(OC)cc3c2=O)c1
BMDM [1]
  inhibition at 10 µM: 16.8%
BMDM [2]
  inhibition at 5 µM: 17.6%

## Cc1ccc(-c2oc3ccccc3c(=O)c2Cc2ccccc2O)cc1
BMDM [1]
  inhibition at 10 µM: 37.8%
BMDM [2]
  inhibition at 5 µM: 34.4%

## COc1ccc(-c2oc3ccccc3c(=O)c2Cc2ccccc2O)cc1
Mus musculus [3]
  Activity: Active
Mus musculus [4]
  Activity: Active
BMDM [5]
  Activity: Dose-Dependent Effect
BMDM [6]
  Activity: Active
BMDM [7]
  Activity: Active
BMDM [8]
  Activity: Non-Toxic
BMDM [9]
  Activity: Active
BMDM [10]
  Activity: Active
Mus musculus [11]
  Activity: Active
[12]
  Activity: Non-Toxic
BMDM [13]
  Activity: Active
Pre-Osteoblast [14]
  Activity: inactive
BMDM [15]
  Activity: Active
BMDM [16]
  Activity: Active
BMDM [17]
  Activity: Active
Mus musculus [18]
  Activity: Active
BMDM [19]
  Activity: Dose-Dependent Effect
BMDM [1]
  inhibition at 10 µM: 79%
BMDM [20]
  Activity: Active
BMDM [21]
  Activity: Active
BMDM [22]
  IC50: 2.39 µM
BMDM [2]
  inhibition at 5 µM: 56.4%
Pre-Osteoblast [23]
  Activity: inactive
Mus musculus [24]
  Activity: Active
Pre-Osteoblast [25]
  Activity: inactive
Mus musculus [26]
  Activity: Active
BMDM [27]
  Activity: Active
Pre-Osteoblast [28]
  Activity: inactive
[29]
  Activity: Non-Toxic
BMDM [30]
  Activity: Dose-Dependent Effect
BMDM [31]
  Activity: Active
BMDM [32]
  Activity: Active
BMDM [33]
  Activity: Active

## O=c1c(Cc2ccccc2O)c(-c2ccccc2)oc2ccccc12
BMDM [1]
  inhibition at 10 µM: 60.4%
BMDM [2]
  inhibition at 5 µM: 31.5%

## O=c1c(Cc2cc(F)ccc2O)c(-c2ccccc2)oc2ccc(F)cc12
BMDM [1]
  inhibition at 10 µM: 37.6%
BMDM [2]
  inhibition at 5 µM: 40%

## O=c1c(Cc2cccc(F)c2)c(-c2ccccc2)oc2ccccc12
BMDM [1]
  inhibition at 10 µM: 36.3%
BMDM [2]
  inhibition at 5 µM: 22%

## CS(=O)(=O)c1ccc(Oc2ccccc2Cc2c(-c3ccccc3)oc3ccccc3c2=O)cc1
BMDM [1]
  inhibition at 10 µM: 51.8%
BMDM [2]
  inhibition at 5 µM: 23.2%

## COc1ccc(O)c(Cc2c(-c3ccccc3)oc3ccccc3c2=O)c1
BMDM [1]
  inhibition at 10 µM: 38.2%
BMDM [2]
  inhibition at 5 µM: 36.5%

## O=c1c(Cc2ccccc2)c(-c2ccccc2)oc2ccccc12
BMDM [1]
  inhibition at 10 µM: 30.6%
BMDM [2]
  inhibition at 5 µM: 22.6%

## O=c1c(Cc2cc(Br)ccc2O)c(-c2ccccc2)oc2ccccc12
BMDM [1]
  inhibition at 10 µM: 54.5%
BMDM [2]
  inhibition at 5 µM: 22.7%

## Cc1ccc(S(=O)(=O)Oc2ccccc2Cc2c(-c3ccccc3)oc3ccccc3c2=O)cc1
BMDM [1]
  inhibition at 10 µM: 68.1%
BMDM [2]
  inhibition at 5 µM: 28.9%

Reference: ChEMBL document CHEMBL5500345, “Discovery of a novel homoisoflavonoid derivative 5g for anti-osteoclastic bone loss via targeting FGFR1” (Eur J Med Chem, 2024)
